Experiment [1] deals with T1, ACVRLI (Homo sapiens, UniProt P37023).
T1 construct: purchased DiscoveRx
Nature of the experiment: KinomeScan. It is filed as binding. The conditions noted are these: read-out: % Control.

Experiment [2] has as its target T2, CDK11 (Homo sapiens, UniProt Q9BWU1).
T2 construct: purchased DiscoveRx (KinomeScan service)
As to the kind of experiment: KinomeScan. As to conditions: read-out: % Control. Format: binding.

Experiment [3] concerns the target CHEK1 (Homo sapiens, UniProt O14757). Nature of the experiment: KinomeScan. Format: binding. As to conditions: read-out: % Control.
Experiment [4] deals with CHEK2 (Homo sapiens, UniProt O96017). As to the kind of experiment: KinomeScan. It is filed as binding. The conditions noted are these: read-out: % Control.
Experiment [5] has as its target CLK3 (Homo sapiens, UniProt P49761). As to the kind of experiment: KinomeScan. As to conditions: read-out: % Control. It is filed as binding.
Experiment [6] addresses CLK4 (Homo sapiens, UniProt Q9HAZ1). As to the kind of experiment: KinomeScan. Format: binding. The conditions noted are these: read-out: % Control.
Experiment [7] deals with T3, EPHB2 (Homo sapiens, UniProt P29323).
T3 construct: purchased DiscoveRx (Fremont, CA)
Nature of the experiment: KinomeScan. The conditions noted are these: read-out: % Control. Format: binding.

The target in experiment [8] is T4, FES (Homo sapiens, UniProt P07332).
T4 construct: purchased DiscoveRx (Fremont, CA)
Nature of the experiment: KinomeScan. Format: binding. As to conditions: read-out: % Control.

The target in experiment [9] is T5, KIT (Homo sapiens, UniProt P10721).
T5 construct: purchased DiscoveRx
Nature of the experiment: KinomeScan. Format: binding. The conditions noted are these: read-out: % Control.

Experiment [10] has as its target T6, MELK (Homo sapiens, UniProt Q14680).
T6 construct: purchased DiscoveRx (Fremont, CA)
Nature of the experiment: KinomeScan. As to conditions: read-out: % Control. Format: binding.

In experiment [11] the target is T7, PIK3C2G (Homo sapiens, UniProt O75747).
T7 construct: purchased DiscoveRx (Fremont, CA)
T7 sequence (O75747 whole entry): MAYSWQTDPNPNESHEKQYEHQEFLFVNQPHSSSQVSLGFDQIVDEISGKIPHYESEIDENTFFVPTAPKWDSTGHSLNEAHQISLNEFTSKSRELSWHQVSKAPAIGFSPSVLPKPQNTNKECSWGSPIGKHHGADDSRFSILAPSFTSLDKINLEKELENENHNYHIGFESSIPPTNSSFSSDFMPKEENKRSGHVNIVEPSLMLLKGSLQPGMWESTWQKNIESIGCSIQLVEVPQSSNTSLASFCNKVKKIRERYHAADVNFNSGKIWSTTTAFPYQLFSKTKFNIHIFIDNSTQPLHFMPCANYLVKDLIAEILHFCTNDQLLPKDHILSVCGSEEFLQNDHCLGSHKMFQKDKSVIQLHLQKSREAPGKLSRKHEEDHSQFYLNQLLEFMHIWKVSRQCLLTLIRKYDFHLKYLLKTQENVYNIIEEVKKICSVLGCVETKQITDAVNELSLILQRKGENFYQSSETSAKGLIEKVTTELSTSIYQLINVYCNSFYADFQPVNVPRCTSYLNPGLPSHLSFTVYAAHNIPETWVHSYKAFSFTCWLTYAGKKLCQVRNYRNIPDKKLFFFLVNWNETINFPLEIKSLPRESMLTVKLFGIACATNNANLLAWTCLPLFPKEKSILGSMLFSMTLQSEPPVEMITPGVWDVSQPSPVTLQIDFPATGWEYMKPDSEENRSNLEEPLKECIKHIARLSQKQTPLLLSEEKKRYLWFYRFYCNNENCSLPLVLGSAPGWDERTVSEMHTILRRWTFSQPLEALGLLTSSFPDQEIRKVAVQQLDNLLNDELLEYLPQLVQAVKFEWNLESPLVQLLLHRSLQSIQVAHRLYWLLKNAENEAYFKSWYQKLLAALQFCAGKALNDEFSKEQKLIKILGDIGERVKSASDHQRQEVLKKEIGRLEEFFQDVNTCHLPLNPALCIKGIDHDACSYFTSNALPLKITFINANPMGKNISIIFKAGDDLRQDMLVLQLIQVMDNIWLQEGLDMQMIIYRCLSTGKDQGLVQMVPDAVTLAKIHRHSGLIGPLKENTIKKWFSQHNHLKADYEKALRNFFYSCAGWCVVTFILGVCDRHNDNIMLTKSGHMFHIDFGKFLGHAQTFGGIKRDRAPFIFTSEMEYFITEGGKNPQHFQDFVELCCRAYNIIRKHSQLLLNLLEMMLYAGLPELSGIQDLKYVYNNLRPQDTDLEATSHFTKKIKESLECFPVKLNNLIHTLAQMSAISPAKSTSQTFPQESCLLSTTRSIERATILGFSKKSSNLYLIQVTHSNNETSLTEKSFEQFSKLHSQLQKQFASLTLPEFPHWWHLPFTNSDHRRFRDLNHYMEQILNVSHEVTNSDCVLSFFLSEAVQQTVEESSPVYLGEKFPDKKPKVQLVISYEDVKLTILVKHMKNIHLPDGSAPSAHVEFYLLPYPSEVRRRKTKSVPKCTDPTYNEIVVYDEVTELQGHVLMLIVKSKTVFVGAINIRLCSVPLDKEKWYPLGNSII
As to the kind of experiment: KinomeScan. The conditions noted are these: read-out: % Control. It is filed as binding.

Experiment [12] deals with T8, PIK3CA(E545K) (Homo sapiens, UniProt P42336, E545K).
T8 construct: purchased DiscoveRx (Fremont, CA)
As to the kind of experiment: KinomeScan. It is filed as binding. The conditions noted are these: read-out: % Control.

Experiment [13] deals with T9, PIPSK1A (Homo sapiens, UniProt Q99755).
T9 construct: purchased DiscoveRx (Fremont, CA)
Nature of the experiment: KinomeScan. It is filed as binding. As to conditions: read-out: % Control.

Experiment [14] concerns the target T10, ADRB3 (Homo sapiens, UniProt P13945).
T10 construct: host or cells: Chem-1 cells with promiscuous Gα15
As to the kind of experiment: GPCR Profiler. Format: cell-based. The conditions noted are these: 12.5 uM.

Experiment [15] concerns the target T11, CCR7 (Homo sapiens, UniProt P32248).
T11 construct: host or cells: Chem-1 cells with Gα15
Nature of the experiment: GPCR Profiler. Format: cell-based.

For experiment [16], the target named is T12, EP4 (Homo sapiens, UniProt P35408).
T12 construct: host or cells: Chem-1 cells expressing Gα15
T12 sequence (P35408 whole entry): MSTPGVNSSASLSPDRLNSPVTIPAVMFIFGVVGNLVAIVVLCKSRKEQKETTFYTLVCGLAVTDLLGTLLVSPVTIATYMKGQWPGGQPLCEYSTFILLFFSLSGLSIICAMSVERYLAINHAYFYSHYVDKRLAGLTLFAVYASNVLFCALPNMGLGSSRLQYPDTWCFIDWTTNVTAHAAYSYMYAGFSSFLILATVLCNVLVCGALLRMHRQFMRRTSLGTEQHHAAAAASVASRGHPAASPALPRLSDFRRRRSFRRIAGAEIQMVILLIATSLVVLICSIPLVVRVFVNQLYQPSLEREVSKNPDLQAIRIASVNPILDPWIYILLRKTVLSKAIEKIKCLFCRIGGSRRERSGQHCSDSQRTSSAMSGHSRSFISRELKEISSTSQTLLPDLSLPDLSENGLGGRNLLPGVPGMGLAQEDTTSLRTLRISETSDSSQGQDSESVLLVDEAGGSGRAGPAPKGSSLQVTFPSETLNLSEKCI
Nature of the experiment: GPCR Profiler. Format: cell-based.

Experiment [17] addresses T13, GLP-2 (Homo sapiens, UniProt O95838).
T13 construct: host or cells: Chem-1 cells expressing Gα15
Nature of the experiment: GPCR Profiler. Format: cell-based.

Experiment [18] concerns the target T14, GPR39 (Homo sapiens, UniProt O43194).
T14 construct: host or cells: Chem-1 cells expressing Gα15
Nature of the experiment: GPCR Profiler. Format: cell-based.

For experiment [19], the target named is T15, MCHR2 (Homo sapiens, UniProt Q969V1).
T15 construct: host or cells: Chem-1 cells expressing Gα15
T15 sequence (Q969V1 whole entry, species assumed): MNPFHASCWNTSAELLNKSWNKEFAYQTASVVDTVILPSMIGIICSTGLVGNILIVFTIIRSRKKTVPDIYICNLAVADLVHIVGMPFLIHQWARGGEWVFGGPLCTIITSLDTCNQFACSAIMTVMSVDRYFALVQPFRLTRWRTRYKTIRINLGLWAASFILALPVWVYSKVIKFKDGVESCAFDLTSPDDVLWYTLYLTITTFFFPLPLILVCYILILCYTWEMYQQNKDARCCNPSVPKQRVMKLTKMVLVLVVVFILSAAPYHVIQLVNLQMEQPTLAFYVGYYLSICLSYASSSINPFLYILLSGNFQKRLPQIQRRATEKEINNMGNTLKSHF
As to the kind of experiment: GPCR Profiler. Format: cell-based.

For experiment [20], the target named is T16, NMU2 (Homo sapiens, UniProt Q9GZQ4).
T16 construct: host or cells: Chem-1 cells expressing Gα15
T16 sequence (Q9GZQ4 whole entry, species assumed): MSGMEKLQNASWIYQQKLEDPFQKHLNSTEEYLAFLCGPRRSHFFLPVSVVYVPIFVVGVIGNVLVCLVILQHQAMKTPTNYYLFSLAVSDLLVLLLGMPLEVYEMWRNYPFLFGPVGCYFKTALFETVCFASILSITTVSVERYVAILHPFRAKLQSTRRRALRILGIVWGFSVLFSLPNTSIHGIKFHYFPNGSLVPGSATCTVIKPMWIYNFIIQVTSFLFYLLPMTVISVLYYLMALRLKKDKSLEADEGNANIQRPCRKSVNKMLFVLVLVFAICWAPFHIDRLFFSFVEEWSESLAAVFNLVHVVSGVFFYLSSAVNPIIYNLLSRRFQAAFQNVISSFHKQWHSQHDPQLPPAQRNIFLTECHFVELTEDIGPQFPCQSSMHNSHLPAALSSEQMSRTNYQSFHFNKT
As to the kind of experiment: GPCR Profiler. It is filed as cell-based.

Experiment [21] relates to HT-1080. Nature of the experiment: Cell Titer-Glo viability, Fibrosarcoma. It is filed as cell-based. How it is done:
OGM2 kills wide variety of cancer cell types. Cell sensitivity can be classified in to Very Sensitive (LC50<2 μM), Sensitive (LC50=2 to 10 μM), Mildly Sensitive (LC50>10 μM), and Refractory (no killing at 10 μM). The listed established cell were incubated with OGM2 at 2 μM or 10 μM for 72 hours under standard cell culture conditions, and relative cell number was assessed using Cell Titer-Glo Luminescent Cell Viability Assay (Promega™) following the manufacturer's instructions. Luminescence was determined using a Cytation 5 reader and Gen5 software package (BioTek™).
Cancer cells, which are very sensitive to killing by OGM2 (LCs <2 μM), with reported mRNA expression of GPR68 and the related proton sensing receptor GPR4. LC50's (concentrations causing 50% lethality) were determined using CellTiter-Glo (Promega™, G7570). Cells were plated in 12-well plates (CELLTREAT Scientific Products, 229112) in 1 ml of DMEM with high glucose, GlutaMAX, HEPES, or RPMI 1640 with Penicillin-Streptomycin (ThermoFisher™, 10564029, 11875119 and 15140122) and 10% FBS. Cells were incubated overnight at 37° C. in 5% CO2. Then 1 mL of fresh media was added with DMSO, OGM, or positive control (Erastin; APExBIO Technology, LLC, B1524) and cells incubated for 3 days. On the third day, all media was removed, cells were rinsed with 1×PBS, PBS was removed, and 200 μL of 1× Passive Lysis Buffer (Promega™, E1941) was added to each well. […]. Subsequently, 20 μL of lysate was added to 100 μL CellTiter-Glo™ reagent on a LUMITRAC 200 plate (Greiner™ bio-one, 82050-726). Plates were briefly spun down and read on a GloMax-Multi Detection System (Promega™).
The cells listed in the tables above were incubated with OGM2 at 2 μM or 10 μM for 72 hours under standard cell culture conditions, and relative cell number was assessed using Cell Titer-Glo Luminescent Cell Viability Assay (Promega™) following the manufacturer's instructions. Luminescence was determined using a Cytation 5 reader and Gen5 software package (BioTek™). RNA expression of GPR68 and GPR4 in the corresponding cancer cell lines are listed, according to the publicly available The Human Protein Atlas version 22.0 and Ensembl version 103.38 (see proteinatlas.org). The consensus normalized expression value (“nTPM”=normalize transcript per million) was calculated as the maximum nTPM value for each gene in the two data sources.
In general terms: ATP-based viability assays read luminescence as a measure of living cells.

Experiment [22] concerns PANC02. Nature of the experiment: Clonogenicity (crystal violet). It is filed as cell-based. As to conditions: 7 days. How it is done: In a third study, PANC02 pancreatic cells were plated at 400 cells per well in a 6-well plate and on the next day were treated with increasing concentrations of OGM2 for 7 days. The plate was fixed with formalin and stained with crystal violet.

T11 sequence (P32248 25-378, species assumed): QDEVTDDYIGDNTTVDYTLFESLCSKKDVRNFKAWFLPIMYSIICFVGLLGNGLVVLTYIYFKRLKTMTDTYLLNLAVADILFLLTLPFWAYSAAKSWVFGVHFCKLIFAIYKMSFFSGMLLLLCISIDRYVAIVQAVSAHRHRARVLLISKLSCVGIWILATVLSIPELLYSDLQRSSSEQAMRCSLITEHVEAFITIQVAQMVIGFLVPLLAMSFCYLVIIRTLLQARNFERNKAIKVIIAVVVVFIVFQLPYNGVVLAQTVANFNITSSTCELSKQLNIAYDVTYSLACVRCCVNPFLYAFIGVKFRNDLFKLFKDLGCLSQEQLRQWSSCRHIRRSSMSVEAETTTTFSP
T14 sequence (O43194 whole entry): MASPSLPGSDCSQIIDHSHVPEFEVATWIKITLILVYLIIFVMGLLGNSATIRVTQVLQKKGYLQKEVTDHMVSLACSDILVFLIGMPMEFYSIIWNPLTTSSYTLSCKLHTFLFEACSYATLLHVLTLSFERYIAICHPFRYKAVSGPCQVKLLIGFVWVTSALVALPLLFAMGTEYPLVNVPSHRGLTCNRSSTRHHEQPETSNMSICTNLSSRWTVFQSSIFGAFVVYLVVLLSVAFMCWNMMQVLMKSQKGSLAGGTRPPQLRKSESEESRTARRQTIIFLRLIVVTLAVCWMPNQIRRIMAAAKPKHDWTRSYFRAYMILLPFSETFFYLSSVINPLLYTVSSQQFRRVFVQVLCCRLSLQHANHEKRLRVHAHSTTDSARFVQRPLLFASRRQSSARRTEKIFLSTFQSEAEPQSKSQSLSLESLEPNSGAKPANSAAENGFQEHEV
T13 sequence (O95838 whole entry): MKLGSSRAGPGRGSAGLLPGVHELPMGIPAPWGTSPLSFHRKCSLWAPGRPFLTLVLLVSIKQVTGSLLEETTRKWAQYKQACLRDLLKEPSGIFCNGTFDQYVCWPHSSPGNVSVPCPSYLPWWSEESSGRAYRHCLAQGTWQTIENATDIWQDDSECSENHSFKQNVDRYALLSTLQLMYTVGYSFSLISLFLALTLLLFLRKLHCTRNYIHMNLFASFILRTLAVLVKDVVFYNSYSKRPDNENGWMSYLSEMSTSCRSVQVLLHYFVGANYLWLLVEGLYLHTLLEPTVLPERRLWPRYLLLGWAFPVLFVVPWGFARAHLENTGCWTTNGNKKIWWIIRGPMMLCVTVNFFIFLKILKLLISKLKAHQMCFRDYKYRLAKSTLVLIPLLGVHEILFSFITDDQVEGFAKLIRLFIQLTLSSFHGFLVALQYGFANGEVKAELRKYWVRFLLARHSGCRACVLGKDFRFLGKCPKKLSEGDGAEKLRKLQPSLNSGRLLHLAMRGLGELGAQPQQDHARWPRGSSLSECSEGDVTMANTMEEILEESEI
T10 sequence (P13945 whole entry, species assumed): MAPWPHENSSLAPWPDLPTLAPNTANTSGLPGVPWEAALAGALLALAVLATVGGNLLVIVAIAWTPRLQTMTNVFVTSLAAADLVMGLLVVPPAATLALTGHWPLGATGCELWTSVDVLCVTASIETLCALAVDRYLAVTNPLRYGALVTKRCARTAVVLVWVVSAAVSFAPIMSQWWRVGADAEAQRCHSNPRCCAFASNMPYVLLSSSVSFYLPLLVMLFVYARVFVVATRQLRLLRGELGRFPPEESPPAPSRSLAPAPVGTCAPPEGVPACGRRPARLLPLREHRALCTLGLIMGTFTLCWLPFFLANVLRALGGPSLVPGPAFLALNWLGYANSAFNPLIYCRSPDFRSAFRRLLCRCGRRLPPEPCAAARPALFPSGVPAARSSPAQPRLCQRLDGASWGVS
Chain of CLK4 (Q9HAZ1 whole entry): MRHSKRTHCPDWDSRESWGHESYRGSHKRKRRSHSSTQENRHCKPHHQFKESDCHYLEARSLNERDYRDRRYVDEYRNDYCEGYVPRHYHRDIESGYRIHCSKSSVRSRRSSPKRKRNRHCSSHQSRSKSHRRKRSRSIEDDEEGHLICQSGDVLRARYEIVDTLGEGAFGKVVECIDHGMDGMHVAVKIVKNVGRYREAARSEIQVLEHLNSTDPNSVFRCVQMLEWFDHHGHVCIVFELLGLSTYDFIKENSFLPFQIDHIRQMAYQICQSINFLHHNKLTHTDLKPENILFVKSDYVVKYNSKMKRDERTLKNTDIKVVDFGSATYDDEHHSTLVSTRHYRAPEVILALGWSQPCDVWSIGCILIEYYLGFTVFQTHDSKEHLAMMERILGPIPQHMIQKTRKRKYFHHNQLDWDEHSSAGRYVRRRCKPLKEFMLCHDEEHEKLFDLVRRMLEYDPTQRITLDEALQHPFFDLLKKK

As for `CCc1ccc2c(c1)C1(NN=C(c3cccc4ccccc34)S1)C(=O)N2` (stereo not shown) [OGM1, 5-ethyl-5′-naphthalen-1-ylspiro[1H-indole-3,2′-3H-1,3,4-thiadiazole]-2-one], the remaining binding at 10 µM in [1] came out at 100%; in [2], 100%; in [3], 100%; in [4], 82%; in experiment [5], 100%; in experiment [6], 88%. Moreover, the remaining binding at 10 µM was found to be 100% in [7]; 100% in [8]; 79% in [9]; 100% in experiment [10]; 50% in [11]; 100% in experiment [12]. The remaining binding at 10 µM in [13] is 100%. Besides, the Agonism is −0.2 in experiment [14]; 0 in [15] (12.5 uM); 0.9 in experiment [16] (12.5 uM); −0.2 in experiment [17] (12.5 uM); 0 in experiment [18] (12.5 uM); 0.3 in [19] (12.5 uM). For the same compound, the Agonism in experiment [20] (12.5 uM) was found to be 0. The Antagonism in [15] (10 uM) was 4; in experiment [16] (10 uM), −17; in experiment [17] (10 uM), 2.1; in experiment [18] (10 uM) it was 5.4; in [19] (10 uM), −8.2; in experiment [20] (10 uM), −4.2.
Consider `CCc1ccc2c(c1)C1(NN=C(c3ccccc3)S1)C(=O)N2` (stereo not shown) [OGM2], for which, in [21], the Class result is recorded as “Sensitive (Sensitive (LC50=2 to 10 μM))”. Moreover, in [21] (72 hours), the “% Survival 2 μM OGM” value is recorded as 64.2% and the “% Survival 10 μM OGM” value was determined as 21.4%. The CC50 in experiment [21] (Homo sapiens, HT-1080, 72 hours, read-out: LC50 (the source's name)) was 2 to 10 µM. The clonogenicity entry in [22] is recorded as “reduced the clonogenicity of pancreatic cancer cells”.

For the origin of these results see patent publication US20240327364A1, “THERAPEUTIC TARGETING OF GPR68 TO INDUCE FERROPTOSIS” (University Of Maryland, Baltimore, priority 2023, published 2024).
